Data as given in US8030354B2, “Substituted biphenyl GPR40 modulators” (Amgen Inc., priority 2007, dated 2011).
pEC50: −log10 of the molar value.

biological target: GPR40 (Homo sapiens, UniProt O14842); experiment: Cell-based aequorin assay (CHO cells stably expressing GPR40 and aequorin); set-up: expressed in transfected cells; host or cells: CHO cells stably transfected with GPR40 and aequorin; conditions: activation of human GPR40, CHO cells, 0.01% HSA
Experimental: Briefly, the Aequorin assays were performed on doubly stable CHO cells expressing GPR40 and Aequorin DNA. […] The luminescence was recorded over a period of 20 seconds with a Microlumat luminometer (Berthold). […] The inositol phosphate assay was performed on an A9 cell line stably transfected with GPR40 (A9_GPR40). The cells were incubated with different concentrations of compounds and [^3H] inositol accumulation was measured after 1 hour.
Cell-based aequorin assays were employed to characterize the modulatory activity of compounds on the GPR40 signaling pathway. In an exemplary assay, CHO cells were stably transfected with both GPR40 and Aequorin (Euroscreen). Cells were detached from the tissue culture dish with 2 mL of trypsin (0.25%(w/v)). Trypsinization was halted with 28 mL of Hanks Buffered Salt Solution containing 20 mM Hepes (H/HBSS) and 0.01% fatty acid-free human serum albumin (HSA). Coelantrazine is added to 1 ug/mL, and the cells were incubated for 2 hours at room temperature. Compounds were dissolved in DMSO for preparation of 10 mM stock solutions. Compounds were diluted in H/HBSS containing 0.01% HSA. Serial dilutions of the test compounds were prepared to determine dose response.
Aequorin luminescence measurements were made using an EG&G Berthold 96-well luminometer, and the response was measured over a 20 second interval after cells and compounds were mixed. The maximum relative light units was plotted to determine dose response. The EC50 (effective concentration to reach 50% maximal response) was determined from the dose response plot.

GPR40, sequence (O14842 whole entry): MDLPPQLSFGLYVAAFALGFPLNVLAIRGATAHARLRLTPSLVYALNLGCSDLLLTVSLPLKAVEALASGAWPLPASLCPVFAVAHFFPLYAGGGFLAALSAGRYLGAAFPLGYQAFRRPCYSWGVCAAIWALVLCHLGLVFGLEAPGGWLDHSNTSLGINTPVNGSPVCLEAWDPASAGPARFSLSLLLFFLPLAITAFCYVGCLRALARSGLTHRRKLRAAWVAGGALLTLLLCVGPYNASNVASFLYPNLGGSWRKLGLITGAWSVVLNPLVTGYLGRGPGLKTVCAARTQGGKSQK

| pEC50 | Compound |
| --- | --- |
| 6.00 to 7.00 | COc1ccc(F)c(-c2ccc(COc3cccc(CC(C)C(=O)O)c3)cc2C2CCCC2(C)C)c1 (single isomer, unassigned) [Example 63.2, (2S)-3-(3-(((2-(2,2-Dimethylcyclopentyl)-2′-fluoro-5′-(methyloxy)-1,1′-biphenyl-4-yl)methyl)oxy)phenyl)-2-methylpropanoic acid or (2R)-3-(3-(((2-(2,2-dimethylcyclopentyl)-2′-fluoro-5′-(methyloxy)-1,1′-biphenyl-4-yl)methyl)oxy)phenyl)-2-methylpropanoic acid] |
| 6.00 to 7.00 | COc1ccc(F)c(-c2ccc(COc3cccc(C(C)CC(=O)O)c3)cc2OCC(C)(C)C)c1 (single isomer, unassigned) [Example 64.1, (3R)-3-(3-(((2-((2,2-Dimethylpropyl)oxy)-2′-fluoro-5′-(methyloxy)-1,1′-biphenyl-4-yl)methyl)oxy)phenyl)butanoic acid or (3S)-3-(3-(((2-((2,2-dimethylpropyl)oxy)-2′-fluoro-5′-(methyloxy)-1,1′-biphenyl-4-yl)methyl)oxy)phenyl)butanoic acid] |
| 5.00 to 6.00 | CCCCOc1cc(COc2cccc(C(C)CC(=O)O)c2)ccc1-c1cccc(SC)c1 (single isomer, unassigned) [Example 64.2, (3R)-3-(3-(((2-(Butyloxy)-3′-(methylsulfanyl)-1,1′-biphenyl-4-yl)methyl)oxy)phenyl)butanoic acid or (3S)-3-(3-(((2-(butyloxy)-3′-(methylsulfanyl)-1,1′-biphenyl-4-yl)methyl)oxy)phenyl)butanoic acid] |
| 5.00 to 6.00 | COc1ccc(F)c(-c2cc(C)c(COc3cccc(C(C)CC(=O)O)c3)cc2C(C)(C)C)c1 (single isomer, unassigned) [Example 64.3, (3R)-3-(3-(((2-(1,1-Dimethylethyl)-2′-fluoro-5-methyl-5′-(methyloxy)-1,1′-biphenyl-4-yl)methyl)oxy)phenyl)butanoic acid or (3S)-3-(3-(((2-(1,1-dimethylethyl)-2′-fluoro-5-methyl-5′-(methyloxy)-1,1′-biphenyl-4-yl)methyl)oxy)phenyl)butanoic acid] |
| 6.00 to 7.00 | CCC/C=C/c1cc(COc2cccc(C(C)CC(=O)O)c2)ccc1-c1cc(OC)ccc1F (single isomer, unassigned) [Example 64.8, (3R)-3-(3-(((2′-Fluoro-5′-(methyloxy)-2-((1E)-1-pentenyl)-1,1′-biphenyl-4-yl)methyl)oxy)phenyl)butanoic acid or (3S)-3-(3-(((2′-fluoro-5′-(methyloxy)-2-((1E)-1-pentenyl)-1,1′-biphenyl-4-yl)methyl)oxy)phenyl)butanoic acid] |
| 6.00 to 7.00 | COc1ccc(F)c(-c2ccc(COc3cccc(C(C)CC(=O)O)c3)cc2/C=C/C2CCCCC2)c1 (single isomer, unassigned) [Example 64.9, (3R)-3-(3-(((2-((E)-2-Cyclohexylethenyl)-2′-fluoro-5′-(methyloxy)-1,1′-biphenyl-4-yl)methyl)oxy)phenyl)butanoic acid or (3S)-3-(3-(((2-((E)-2-cyclohexylethenyl)-2′-fluoro-5′-(methyloxy)-1,1′-biphenyl-4-yl)methyl)oxy)phenyl)butanoic acid] |
| 5.00 to 6.00 | CSc1cccc(-c2ccc(COc3cccc(C(C)CC(=O)O)c3)cc2C(C)(C)C)c1 (single isomer, unassigned) [Example 64.23, (3R)-3-(3-(((2-(1,1-Dimethylethyl)-3′-(methylsulfanyl)-1,1′-biphenyl-4-yl)methyl)oxy)phenyl)butanoic acid or (3S)-3-(3-(((2-(1,1-dimethylethyl)-3′-(methylsulfanyl)-1,1′-biphenyl-4-yl)methyl)oxy)phenyl)butanoic acid] |
| 5.00 to 6.00 | CCOc1cccc(-c2ccc(COc3cccc(C(C)CC(=O)O)c3)cc2C(C)(C)C)c1 (single isomer, unassigned) [Example 64.24, (3R)-3-(3-(((2-(1,1-Dimethylethyl)-3′-(ethyloxy)-1,1′-biphenyl-4-yl)methyl)oxy)phenyl)butanoic acid or (3S)-3-(3-(((2-(1,1-dimethylethyl)-3′-(ethyloxy)-1,1′-biphenyl-4-yl)methyl)oxy)phenyl)butanoic acid] |
| 5.00 to 6.00 | COc1ccc(F)c(-c2ccc(C(C)Oc3cccc(C(C)CC(=O)O)c3)cc2C(C)(C)C)c1 (single isomer, unassigned) [Example 64.25] |
| 5.00 to 6.00 | CCCCOc1cc(COc2cccc(C(C)CC(=O)O)c2)ccc1-c1cccc(F)c1 (single isomer, unassigned) [Example 64.26, (3R)-3-(3-(((2-(butyloxy)-3′-fluoro-1,1′-biphenyl-4-yl)methyl)oxy)phenyl)butanoic acid or (3S)-3-(3-(((2-(butyloxy)-3′-fluoro-1,1′-biphenyl-4-yl)methyl)oxy)phenyl)butanoic acid] |
| 6.00 to 7.00 | CCCCOc1cc(COc2cccc(C(CC)CC(=O)O)c2)ccc1-c1cccc(OC)c1 (single isomer, unassigned) [Example 65.2, (3R)-3-(3-(((2-(Butyloxy)-3′-(methyloxy)-1,1′-biphenyl-4-yl)methyl)oxy)phenyl)pentanoic acid or (3S)-3-(3-(((2-(butyloxy)-3′-(methyloxy)-1,1′-biphenyl-4-yl)methyl)oxy)phenyl)pentanoic acid] |
| 6.00 to 7.00 | CCCCOc1cc(COc2cccc(C(CC(=O)O)C3CC3)c2)ccc1-c1cccc(OC)c1 (single isomer, unassigned) [Example 66.1, (3S)-3-(3-(((2-(Butyloxy)-3′-(methyloxy)-1,1′-biphenyl-4-yl)methyl)oxy)phenyl)-3-cyclopropylpropanoic acid or (3R)-3-(3-(((2-(butyloxy)-3′-(methyloxy)-1,1′-biphenyl-4-yl)methyl)oxy)phenyl)-3-cyclopropylpropanoic acid] |
| 6.00 to 7.00 | COc1ccc(F)c(-c2ccc(COc3cccc(C(CC(=O)O)C4CC4)c3)cc2C2CCCC2(C)C)c1 (single isomer, unassigned) [Example 66.5] |
| 6.00 to 7.00 | COc1cccc(-c2ccc(COc3cccc(C(CC(=O)O)C4CC4)c3)cc2C2CCCC2(C)C)c1 (single isomer, unassigned) [Example 66.7] |
| 6.00 to 7.00 | CC1(C)CCC=C1c1cc(COc2cccc([C@@H](CC(=O)O)C3CC3)c2)ccc1-c1cc(O)ccc1F (single isomer, unassigned) [Example 66.14, (3S)-3-Cyclopropyl-3-(3-(((2-(5,5-dimethyl-1-cyclopenten-1-yl)-2′-fluoro-5′-hydroxy-1,1′-biphenyl-4-yl)methyl)oxy)phenyl)propanoic acid or (3R)-3-cyclopropyl-3-(3-(((2-(5,5-dimethyl-1-cyclopenten-1-yl)-2′-fluoro-5′-hydroxy-1,1′-biphenyl-4-yl)methyl)oxy)phenyl)propanoic acid] |
| 6.00 to 7.00 | COc1ccc(F)c(-c2ccc(COc3cccc([C@@H](CC(=O)O)C4CC4)c3)cc2C2CCCCCCC2)c1 (single isomer, unassigned) [Example 66.16, (3S)-3-(3-(((2-Cyclooctyl-2′-fluoro-5′-(methyloxy)-1,1′-biphenyl-4-yl)methyl)oxy)phenyl)-3-cyclopropylpropanoic acid or (3R)-3-(3-(((2-cyclooctyl-2′-fluoro-5′-(methyloxy)-1,1′-biphenyl-4-yl)methyl)oxy)phenyl)-3-cyclopropylpropanoic acid] |
| 6.00 to 7.00 | COc1ccc(F)c(-c2ccc(COc3cccc([C@@H](CC(=O)O)C4CC4)c3)cc2[C@H](C)C(C)(C)C)c1 (single isomer, unassigned) [Example 66.18] |
| 5.00 to 6.00 | CC1(C)CCC[C@@H]1c1cc(COc2cccc([C@@H](CC(=O)O)C3CC3)c2)ccc1-c1cc(OCC(F)(F)F)ccc1F (single isomer, unassigned) [Example 66.23] |
| 6.00 to 7.00 | CC1(C)CCC[C@@H]1c1cc(COc2cccc([C@@H](CC(=O)O)C3CC3)c2)ccc1-c1cc(OC(F)(F)F)ccc1F (single isomer, unassigned) [Example 66.29] |
| 6.00 to 7.00 | CO[C@@H](c1cc(COc2cccc([C@@H](CC(=O)O)C3CC3)c2)ccc1-c1ccccc1F)C(C)(C)C (single isomer, unassigned) [Example 66.32] |
| 5.00 to 6.00 | CC1(C)CCCC=C1c1cc(COc2cccc(C(CC(=O)O)C3CC3)c2)ccc1-c1cc(=O)[nH]cc1F (single isomer, unassigned) [Example 66.35, (3S)-3-Cyclopropyl-3-(3-(((3-(6,6-dimethyl-1-cyclohexen-1-yl)-4-(5-fluoro-2-oxo-1,2-dihydro-4-pyridinyl)phenyl)methyl)oxy)phenyl)propanoic acid or (3R)-3-cyclopropyl-3-(3-(((3-(6,6-dimethyl-1-cyclohexen-1-yl)-4-(5-fluoro-2-oxo-1,2-dihydro-4-pyridinyl)phenyl)methyl)oxy)phenyl)propanoic acid] |

| Compound | pEC50 |
| --- | --- |
| COc1ccc(F)c(-c2ccc(COc3cccc([C@@H](CC(=O)O)C4CC4)c3)cc2[C@@H]2CCCCC2(C)C)c1 (single isomer, unassigned) [Example 66.21] | 6.00 to 7.00 |
| COc1ccc(F)c(-c2ccc(COc3cccc([C@@H](CC(=O)O)C4CC4)c3)cc2[C@H](F)C(C)(C)C)c1 (single isomer, unassigned) [Example 66.30] | 6.00 to 7.00 |
